Reference: patent US5420289A, “Substituted indole-, indene-, pyranoindole- and tetrahydrocarbazole-alkanoic acid derivatives as inhibitors of PLA2 and lipoxygenase” (American Home Products Corporation, priority 1993, dated 1995)
Counter-ions that a name gives are not always drawn.

Assays:
[1] = test system: 5-lipoxygenase in human whole blood; test: inhibition of 5-lipoxygenase in human whole blood (Example 79); type: cell-based; conditions: for IC50: human whole blood, read-out: IC50 (inhibition of LTB4)
Description: The assay of this Example measures the ability of the compounds tested to inhibit 5-lipoxygenase in human whole blood.
(§1) This assay is carried out as follows:
Blood is obtained in 50-100 ml quantities from male donors. White blood cell counts and differentials are made. Two ml of blood are placed in a 15 ml polypropylene test tube. Compounds are solubilized in dimethylsulfoxide and diluted 1:10 in 10% bovine serum albumin in phosphate buffered saline, pH 7.4 resulting in a final dimethylsulfoxide concentration of 0.1% in the blood. Then, compounds are added to the blood in a shaking water bath at 37° C. for 10 minutes prior to the addition of […] calcium ionophore (A23187; Sigma). After ionophore administration, whole blood samples are mixed and incubated for 20 minutes at 37° C. in a shaking water bath. Incubation is terminated by placing samples in an ice bath and immediately adding ethylene glycol-bis-(b-aminoethyl ether)-N,N,N',N'-tetraacetic acid (10 mM). Samples are mixed and centrifuged at 1200 × g for 15 minutes at 4° C. Preparation of samples for evaluation by RIA or ELISA is carried out by the following protocol. Plasma is removed from sample tubes, placed in 15 ml polypropylene test tubes containing 8 ml methanol, and then vortexed to precipitate protein. Samples are stored at -70° C. overnight. The next day, samples are centrifuged at 200 × g for 15 minutes at 4° C. to pellet the precipitate. Samples are dried in a Savant speed vac concentrator, reconstituted to original volume with ice cold RIA or ELISA buffer, and stored at -70° C. until assayed. The assay for eicosanoids (LTB4, T×B2, and PGE2) is performed as described by the manufacturer of the [^3 H]-RIA kit or ELISA kit (LTB4 -Amersham, TxB2 and PGE2 - Caymen Chemical).
The total eicosanoid level in 2 ml of blood is calculated and reported as ng/10^6 neutrophils. […] Drug effects are expressed as percent change from control values.
Compounds tested in vitro are solubilized in dimethylsulfoxide and diluted 1:10 in 10% bovine serum albumin in phosphate buffer saline resulting in a final dimethylsulfoxide concentration of 0.1% i n the blood.

[2] = target: T1, human synovial fluid PLA2 (Homo sapiens, UniProt P14555); test: in vitro isolated phospholipase A2 assay, human synovial fluid PLA2 (Example 74); type: biochemical; parameters: inhibition / % Inhibition, HSF (human synovial fluid): dose or concentration left out as unconfirmed; conditions: for inhibition: read-out: % Inhibition, HSF (human synovial fluid); for IC50: Table III, read-out: IC50 HSF (human synovial fluid)
T1 sequence (P14555 21-144): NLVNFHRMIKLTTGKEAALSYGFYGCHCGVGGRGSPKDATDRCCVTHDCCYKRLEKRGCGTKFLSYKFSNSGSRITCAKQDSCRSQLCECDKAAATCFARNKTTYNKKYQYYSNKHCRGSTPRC
Description: The compounds of the invention are tested in an in vitro isolated phospholipase A2 assay to determine the ability of the test compounds to inhibit the release of arachidonic acid from an arachidonic acid-containing substrate by the action of phospholipase A2 enzyme from human and non-human sources.
as §1
Into a 15 mL polypropylene tube are added the following:
^6 Two human PLA2 enzymes are used:
b) Purified human synovial fluid.
Incubate the 100mL reaction mixture for 10 minutes at 37° C. in a shaking water bath. The reaction is terminated by the addition of 2 mL tetrahydrofuran, followed by vortexlag. NH2 columns (100 mg/mL--Analytichem International) are conditioned with 0.5 mL tetrahydrofuran followed by 0.5 mL tetrahydrofuran/water (2 mL:0.1 mL, v/v).
The sample is loaded onto the columns and slowly drawn through them. The hydrolyzed arachidonic acid retained in the columns is eluted therefrom with 1 mL tetrahydrofuran/glacial acetic acid (2%). The arachidonic acid is transferred to scintillation vials and quantitated by b-counting analysis. A "total counts" sample is prepared by pipetting […] ^3 H-arachidonate E. coli directly into a scintillation vial to which is added 1 mL tetrahydrofuran. 10 mL aquasol (scintillation cocktail) is added to all samples. [formula]

| Molecule | inhibition [2] | % Inhibition of LTB4 ([1]; 25 μM) | also measured |
| --- | --- | --- | --- |
| 1-[(4-Chlorophenyl)methyl]-5-(2-quinolinylmethoxy)-1H-indole-3-acetic acid [Example 32] | – | – | % Inhibition, HSF (human synovial fluid) [2]: 36% |
| Cc1c(CC(=O)O)c2cc(OCc3csc(-c4ccccc4)n3)ccc2n1Cc1ccccc1 [Example 40, 1-[(Phenyl)methyl]-2-methyl-5-[(2-phenyl-4-thiazolyl)methoxy]-1H-indole-3-acetic acid] | 42% | – | – |
| Cc1c(CC(=O)O)c2cc(OCc3ccc4ccccc4n3)ccc2n1Cc1ccc(C(=O)O)cc1 [Example 27, 1-[(4-Carboxyphenyl)methyl]-2-methyl-5-(2-quinolinylmethoxy)-1H-indole-3-acetic acid] | 45% | – | – |
| CC(c1cc2ccccc2s1)N(O)C(N)=O (stereo not drawn) [Example A-64077, reference compound] | – | 72% | IC50 [1]: 3 µM |
| Cc1c(CC(=O)N(C)O)c2cc(OCc3csc(-c4ccccc4)n3)ccc2n1Cc1ccccc1 [Example 57, N-hydroxy-5-[(2-phenyl-4-thiazolyl)methoxy]-1-(phenylmethyl)-N,2-dimethyl-1H-indole-3-acetamide] | – | – | IC50 [1]: 43.3 µM |
| Cc1c(CC(=O)O)c2cc(OCc3ccc4ccccc4c3)ccc2n1Cc1ccc(Cl)cc1 [Example 34, 1-[(4-Chlorophenyl)methyl]-2-methyl-5-(2-naphthalenylmethoxy)-1H-indole-3-acetic acid] | – | – | IC50 [2]: 33.7 µM |
| Cc1c(CC(=O)O)c2cc(OCc3csc(-c4ccc(C(F)(F)F)cc4)n3)ccc2n1Cc1ccc(Cl)cc1 [Example 39, 1-[(4-Chlorophenyl)methyl]-2-methyl-5-[[2-(4-trifluoromethylphenyl)-4-thiazolyl]methoxy]-1H-indole-3-acetic acid] | 46% | – | – |
| CC(C)c1ccc2c(c1)c(SC(C)(C)C)c(CC(C)(C)C(=O)O)n2Cc1ccc(Cl)cc1 [L-663,536, reference compound] | – | – | % Inhibition of LTB4 ([1]; 3 μM): 96% |
| CCOC(=O)Cc1c(C)n(Cc2ccc(C(C)(C)C)cc2)c2ccc(OCc3csc(-c4ccccc4)n3)cc12 [Example 61, 5-[(2-Phenyl-4-thiazolyl)methoxy]-1-[[4-(1,1-dimethylethyl)phenyl]methyl]-2-methyl-1H-indole-3-acetic acid ethyl ester] | – | 5% | – |
| Cc1c(CC(=O)N(C)O)c2cc(OCc3ccc4ccccc4n3)ccc2n1Cc1ccc(Cl)cc1 [Example 22, 1-[(4-Chlorophenyl)methyl]-2-methyl-N-(methyl)-N-(hydroxy)-5-(2-quinolinylmethoxy)-1H,indole-3-acetamide three quarters hydrate] | – | 78% | IC50 [1]: 39.8 µM |
| CC1=C(CC(=O)N(C)O)c2cc(F)ccc2C1=Cc1ccc(OCc2ccc3ccccc3n2)cc1 [Example 44, 5-Fluoro-N-hydroxy-N,2-dimethyl-1-[[4-(2-quinolinylmethoxy)penyl]methylene]-1H -indene-3-acetamide hydrochloride] | – | 94% | IC50 [1]: 4.5 µM |
| Cc1c(CC(=O)NS(=O)(=O)c2ccccc2)c2cc(OCc3ccc4ccccc4n3)ccc2n1Cc1ccc(Cl)cc1 [Example 23] | 64% | – | – |
| Cc1c(CNC(=O)NO)c2cc(OCc3ccc4ccccc4n3)ccc2n1Cc1ccc(Cl)cc1 [Example 42, N-[[1-[(4-Chlorophenyl)methyl]-2-methyl-5-(2-quinolinylmethoxy)-1H-indol-3-yl]methyl]-N'-hydroxyurea] | – | 89% | IC50 [1]: 5.6 µM |

More lines, main results first:

| inhibition [2] | Molecule | % Inhibition of LTB4 ([1]; 25 μM) | also measured |
| --- | --- | --- | --- |
| 49% | Cc1c(CC(=O)O)c2cc(OCc3csc(-c4ccccc4)n3)ccc2n1Cc1ccc2ccccc2c1 [Example 67, 5-[(2-Phenyl-4-thiazolyl)methoxy]-1-(2-nanhthalenylmethyl)-2-methyl-1H-indole-3-acetic acid] | 30% | – |
| 41% | Cc1c(CC(=O)O)c2cc(OCc3ccc4ccccc4n3)ccc2n1Cc1ccc(OCc2ccc3ccccc3n2)cc1 [Example 28, 2-Methyl-5-(2-quinolinylmethoxy)-1-[[4-(2-quinolinylmethoxy)phenyl]methyl]-1H-indole-3-acetic acid hemihydrate] | – | – |
| 46% | Cc1c(CC(=O)O)c2cc(OCc3ccccn3)ccc2n1Cc1ccc(Cl)cc1 [Example 36, 1-[(4-Chlorophenyl)methyl]-2-methyl-5-(2-pyridinylmethoxy)-1H-indole-3-acetic acid] | – | – |
| 1% | CCOC(=O)Cc1c(C)n(Cc2ccc(SC)cc2)c2ccc(OCc3nc4ccccc4s3)cc12 [Example 53, 5-(2-Benzothiazolylmethoxy)-1-[[4-(methylthio)phenyl]methyl]-2-methyl-1H-indole-3-acetic acid ethyl ester] | 80% | – |
| 31% | Cc1c(CC(=O)O)c2cc(OCc3csc(-c4ccccc4)n3)ccc2n1Cc1ccc(Cl)cc1 [Example 38, 1-[(4-Chlorophenyl)methyl]-2-methyl-5-[(2-phenyl-4-thiazolyl)methoxy]-1H-indole-3-acetic acid] | – | – |
| 43% | CSc1ccc(Cn2c(C)c(CC(=O)O)c3cc(OCc4csc(-c5ccccc5)n4)ccc32)cc1 [Example 58, 5-[(2-Phenyl-4-thiazolyl)methoxy]-1-[[(4-methylthio)phenyl]methyl]-2-methyl-1H -indole-3-acetic acid] | – | – |
| 28% | Cc1c(CC(=O)O)c2cc(OCc3ccccc3)ccc2n1Cc1ccc(Cl)cc1 [Example 35, 1-[(4-Chlorophenyl)methyl]-2-methyl-5-(phenylmethoxy)-1H-indole-3-acetic acid] | – | IC50 [2]: 52.9 µM |
| 6% | CCOC(=O)Cc1c(C)n(Cc2cccc(OC)c2)c2ccc(OCc3csc(-c4ccccc4)n3)cc12 [Example 59, 5-[(2-Phenyl-4-thiazolyl)methoxy]-1-[[(3-methoxy)phenyl]methyl]-2-methyl-1H-indole-3-acetic acid ethyl ester] | – | – |
| 39% | Cc1c(CC(=O)O)c2cc(OCc3nc4ccccc4s3)ccc2n1Cc1ccc(Cl)cc1 [Example 37, 1-[(4-Chlorophenyl)methyl]-2-methyl-5-(2-benzothiazolylmethoxy)-1H-indole-3-acetic acid] | – | – |
| 38% | O=C(O)Cc1cn(Cc2ccc(Cl)cc2)c2ccc(OCc3ccc4ccccc4n3)cc12 [Example 33, 1-[(4-Chlorophenyl)methyl]-5-(2-quinolinylmethoxy)-1H-indole-3-acetic acid] | – | – |
